In assay [1] the test system is T cells from old (>22 months) C57BL mice. As to the kind of experiment: T cell proliferation ([3H] thymidine, anti-CD3/anti-CD28), old mice. The settings on record: all the alpha-T treatments (12.5-100 μM), n=6, p<0.05, FIG. 8. The format is cell-based. As to the method:
T cells from young (4 to 6 months) and old (>22 months) C57BL mice were isolated and purified from splenocytes by negative selection using Pan T cell isolation kit from Miltenyi Biotech.
The tocopherol phosphate mixture (alpha-TP) provided by Phosphagenics Limited was composed of approximately ⅔ mono-tocopheryl phosphate (MW 510.7) and ⅓ di-tocopheryl phosphate (MW 923.3), which makes the MW of the compound 598.0. Ethanol was used to dissolve the solid alpha-TP mixture to make a 107.52 mg/ml stock solution ([…]). 34 mg/ml alpha-tocopherol (alpha-T) in ethanol was used as a stock solution of alpha-T (79.06 mM). The solutions used for pre-incubation and incubation were prepared as follows: […]
After pre-incubation, the cells were stimulated (2×10^5 cells/well) in triplicate in a round bottom 96-well plate with plate-bound anti-CD3 (5 μg/ml, anti-CD3e (145-2C11), Pharmingen Cat# 553058) and soluble anti-CD28 (2 μg/ml, final concentration, anti-CD28 (37.51), Pharmingen Cat# 553294) in RPMI medium containing 5% FBS (final concentration and same concentration of vehicle, alpha-tocopherol or alpha-tocopherol phosphate used in the pre-incubation. The cells were incubated at 35° C., 5% CO2 for 64 hours, then, pulsed with 0.5 μCi of [^3H] thymidine for 8 hours. The cells were harvested onto filter paper and proliferation was quantified as the amount of [^3H] […]

A further assay has as its system TNF. As to the kind of experiment: TNF level in the plasma of hypercholesterolemic rabbits. The settings on record: TA at 300 mg/kg feed, 2% cholesterol diet, 4 weeks. The format is in vivo, New Zealand albino rabbits. From the text:
(§1) 47 female New Zealand albino rabbits were obtained at 4-8 weeks of age. They were divided into 7 treatment groups, which consisted of 5-10 animals per group. All the animals were placed on a vitamin E stripped diet, and all the diets contained 2% cholesterol except for the control group (which contained no cholesterol) for 4 weeks (containing the various TA or TPm treatments outlined below). [table] At the end of the treatment period the animals were sacrificed and the blood collected. The plasma was obtained from this blood and the levels of various markers of inflammation were determined and included: IL-1β, IL-6, IL-8, TNF, PAI-1, and CRP. Other markers of inflammation such as CD36 was determined from mRNA isolated from the aortas of the rabbits to determine expression levels.

The subject of a further assay is IL-1β. Put plainly: IL-1β level in the plasma of hypercholesterolemic rabbits. The conditions noted are these: TA at 300 mg/kg feed, 2% cholesterol diet, 4 weeks. The format is in vivo, New Zealand albino rabbits.
From the text: as §1

Another assay relates to PAI-1. As to the kind of experiment: PAI-1 activity in the plasma of hypercholesterolemic rabbits. The format is in vivo, New Zealand albino rabbits. The settings on record: TA at 300 mg/kg feed, 2% cholesterol diet, 4 weeks.
From the text: as §1

For the compound `Cc1c(C)c2c(c(C)c1O)CC[C@@](C)(CCC[C@H](C)CCC[C@H](C)CCCC(C)C)O2` [alpha-T, alpha-tocopherol], the “T cell proliferation compared to vehicle” value in assay [1] is given as “significant increase in proliferation”.
As for `CC(=O)Oc1c(C)c(C)c2c(c1C)CCC(C)(CCC[C@H](C)CCC[C@H](C)CCCC(C)C)O2` (stereo partly shown) [TA, tocopherol acetate], the “plasma TNF” value in the assay on TNF is on record as “modest decreases”. Further, the “plasma IL-1β” value in the assay with IL-1β was “modest decreases”. Further, the “plasma PAI-1 activity” value in the assay on PAI-1 is listed as “modest decreases”.

(Values after patent publication US20090005348A1, “Compounds Having Cytokine Modulating Properties” (VITAL HEALTH SCIENCES PTY LTD, priority 2005, published 2009).)
